# According to the supplement of paper PMC9663587:
# Legend:
# BSJ-03-123 = compound: CC(=O)c1c(C)c2cnc(Nc3ccc(N4CCN(CCOCCOCCOCCNC(=O)COc5cccc6c5C(=O)N(C5CCC(=O)NC5=O)C6=O)CC4)cn3)nc2n(C2CCCC2)c1=O [BSJ-03-123]; assay: increase in dead-cell fraction, 72 h; higher = more death;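 note: breast cancer cell lines in 384-well plates, stained with Hoechst plus LIVE/DEAD far red dye and imaged, cells above an LDR intensity threshold counted dead, Hoechst-negative corpses included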
# THZ1 [1] = compound: T1, CN(C)C/C=C/C(=O)Nc1ccc(C(=O)Nc2cccc(Nc3ncc(Cl)c(-c4c[nH]c5ccccc45)n3)c2)cc1 [THZ1]; assay: as above
# [2] = compound: CCc1cnn2c(NCc3ccc[n+]([O-])c3)cc(N3CCCC[C@H]3CCO)nc12; assay: as above
# LEE011/Ribociclib = compound: CN(C)C(=O)c1cc2cnc(Nc3ccc(N4CCNCC4)cn3)nc2n1C1CCCC1 [LEE011/Ribociclib]; assay: as above
# THZ531 [3] = compound: T2, CN(C)C/C=C/C(=O)Nc1ccc(C(=O)N2CCC[C@@H](Nc3ncc(Cl)c(-c4c[nH]c5ccccc45)n3)C2)cc1 [THZ531]; assay: as above
# YKL-5-124 = compound: C=CC(=O)Nc1ccc(C(=O)Nc2[nH]nc3c2CN(C(=O)N[C@H](CN(C)C)c2ccccc2)C3(C)C)cc1 [YKL-5-124]; assay: as above
# Neratinib/HKI272 = compound: CCOc1cc2ncc(C#N)c(Nc3ccc(OCc4ccccn4)c(Cl)c3)c2cc1NC(=O)/C=C/CN(C)C [Neratinib/HKI272]; assay: as above
# [4] = compound: CC(=O)c1c(C)c2cnc(Nc3ccc(N4CCNCC4)cn3)nc2n(C2CCCC2)c1=O; assay: as above
# AZD1775 = compound: C=CCn1c(=O)c2cnc(Nc3ccc(N4CCN(C)CC4)cc3)nc2n1-c1cccc(C(C)(C)O)n1 [AZD1775]
# THZ1 [5] = compound: T1, THZ1
# Rucaparib = compound: CNCc1ccc(-c2[nH]c3cc(F)cc4c3c2CCNC4=O)cc1 [Rucaparib]
# [6] = compound: CC(=O)Nc1cccc(-n2c(=O)n(C3CC3)c(=O)c3c(Nc4ccc(I)cc4F)n(C)c(=O)c(C)c32)c1
# Saracatinib/AZD0530 = compound: CN1CCN(CCOc2cc(OC3CCOCC3)c3c(Nc4c(Cl)ccc5c4OCO5)ncnc3c2)CC1 [Saracatinib/AZD0530]
# THZ531 [7] = compound: T2, THZ531
# [8] = compound: CCCCOc1c(C(=O)c2c(F)cc(C)cc2F)c[nH]c2nncc1-2
# [9] = compound: CO[C@@H](C)Cn1c(=O)n(C)c2cnc3ccc(-c4cncc(C(C)(C)O)c4)cc3c21
# BVD523 = compound: CC(C)Nc1cc(-c2c[nH]c(C(=O)N[C@H](CO)c3cccc(Cl)c3)c2)c(Cl)cn1 [BVD523]
# [10] = compound: COc1ccc2c(c1)[C@]1(C[C@H]1c1ccc3c(/C=C/c4ccc(CN5C[C@@H](C)O[C@@H](C)C5)cc4)n[nH]c3c1)C(=O)N2
# Alpelisib/BYL719 = compound: Cc1nc(NC(=O)N2CCC[C@H]2C(N)=O)sc1-c1ccnc(C(C)(C)C(F)(F)F)c1 [Alpelisib/BYL719]
# Cediranib/AZD2171 = compound: COc1cc2c(Oc3ccc4[nH]c(C)cc4c3F)ncnc2cc1OCCCN1CCCC1 [Cediranib/AZD2171]
# 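Throughout, for GR50, 72 h: breast cancer and non-malignant breast epithelial cell lines, Deep Dye Drop or Dye Drop imaging, nine half-log doses, GR normalized to time-zero plates and DMSO-only controls.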
cell line,measurement,setting,value
MDAMB415,increase in dead-cell fraction,BSJ-03-123; 0.001 µM,-0.001
same,increase in dead-cell fraction,BSJ-03-123; 0.003162 µM,0.0018
same,increase in dead-cell fraction,BSJ-03-123; 0.01 µM,0.0044
same,increase in dead-cell fraction,BSJ-03-123; 0.03162 µM,0.0034
same,increase in dead-cell fraction,BSJ-03-123; 0.1 µM,0.0066
same,increase in dead-cell fraction,BSJ-03-123; 0.3162 µM,0.0057
same,increase in dead-cell fraction,BSJ-03-123; 1 µM,0.0048
same,increase in dead-cell fraction,BSJ-03-123; 3.162 µM,0.0092
same,increase in dead-cell fraction,BSJ-03-123; 10 µM,0.0219
same,increase in dead-cell fraction,THZ1 [1]; 0.0001 µM,0.0048
same,increase in dead-cell fraction,THZ1 [1]; 0.0003162 µM,0.0014
same,increase in dead-cell fraction,THZ1 [1]; 0.001 µM,0.0046
same,increase in dead-cell fraction,THZ1 [1]; 0.003162 µM,-0.0013
same,increase in dead-cell fraction,THZ1 [1]; 0.01 µM,0.0061
same,increase in dead-cell fraction,THZ1 [1]; 0.03162 µM,0.0106
same,increase in dead-cell fraction,THZ1 [1]; 0.1 µM,0.0295
same,increase in dead-cell fraction,THZ1 [1]; 0.3162 µM,0.0604
same,increase in dead-cell fraction,THZ1 [1]; 1 µM,0.13
same,increase in dead-cell fraction,[2]; 0.0001 µM,-0.001
same,increase in dead-cell fraction,[2]; 0.0003162 µM,0.0007
same,increase in dead-cell fraction,[2]; 0.001 µM,-0.0017
same,increase in dead-cell fraction,[2]; 0.003162 µM,0.0007
same,increase in dead-cell fraction,[2]; 0.01 µM,0.0031
same,increase in dead-cell fraction,[2]; 0.03162 µM,0.0447
same,increase in dead-cell fraction,[2]; 0.1 µM,0.152
same,increase in dead-cell fraction,[2]; 0.3162 µM,0.12
same,increase in dead-cell fraction,[2]; 1 µM,0.154
same,increase in dead-cell fraction,LEE011/Ribociclib; 0.001 µM,0.0085
same,increase in dead-cell fraction,LEE011/Ribociclib; 0.003162 µM,0.0083
same,increase in dead-cell fraction,LEE011/Ribociclib; 0.01 µM,0.01
same,increase in dead-cell fraction,LEE011/Ribociclib; 0.03162 µM,0.0117
same,increase in dead-cell fraction,LEE011/Ribociclib; 0.1 µM,0.0179
same,increase in dead-cell fraction,LEE011/Ribociclib; 0.3162 µM,0.0109
same,increase in dead-cell fraction,LEE011/Ribociclib; 1 µM,0.0253
same,increase in dead-cell fraction,LEE011/Ribociclib; 3.162 µM,0.0174
same,increase in dead-cell fraction,LEE011/Ribociclib; 10 µM,0.0203
same,increase in dead-cell fraction,THZ531 [3]; 0.0001 µM,0.003
same,increase in dead-cell fraction,THZ531 [3]; 0.0003162 µM,0.0003
same,increase in dead-cell fraction,THZ531 [3]; 0.001 µM,0.0038
same,increase in dead-cell fraction,THZ531 [3]; 0.003162 µM,0.0023
same,increase in dead-cell fraction,THZ531 [3]; 0.01 µM,0.0067
same,increase in dead-cell fraction,THZ531 [3]; 0.03162 µM,0.0049
same,increase in dead-cell fraction,THZ531 [3]; 0.1 µM,0.0372
same,increase in dead-cell fraction,THZ531 [3]; 0.3162 µM,0.104
same,increase in dead-cell fraction,THZ531 [3]; 1 µM,0.104
same,increase in dead-cell fraction,YKL-5-124; 0.001 µM,0.0047
same,increase in dead-cell fraction,YKL-5-124; 0.003162 µM,-0.0002
same,increase in dead-cell fraction,YKL-5-124; 0.01 µM,0.0066
same,increase in dead-cell fraction,YKL-5-124; 0.03162 µM,0.0051
same,increase in dead-cell fraction,YKL-5-124; 0.1 µM,0.0109
same,increase in dead-cell fraction,YKL-5-124; 0.3162 µM,0.0176
same,increase in dead-cell fraction,YKL-5-124; 1 µM,0.0019
same,increase in dead-cell fraction,YKL-5-124; 3.162 µM,0.0153
same,increase in dead-cell fraction,YKL-5-124; 10 µM,0.0261
same,increase in dead-cell fraction,Neratinib/HKI272; 0.0003162 µM,-0.0004
same,increase in dead-cell fraction,Neratinib/HKI272; 0.001 µM,0
same,increase in dead-cell fraction,Neratinib/HKI272; 0.003162 µM,0.0031
same,increase in dead-cell fraction,Neratinib/HKI272; 0.01 µM,-0.0015
same,increase in dead-cell fraction,Neratinib/HKI272; 0.03162 µM,0.0006
same,increase in dead-cell fraction,Neratinib/HKI272; 0.1 µM,0.0036
same,increase in dead-cell fraction,Neratinib/HKI272; 0.3162 µM,0.0023
same,increase in dead-cell fraction,Neratinib/HKI272; 1 µM,0.0057
same,increase in dead-cell fraction,Neratinib/HKI272; 3.162 µM,0.017
same,increase in dead-cell fraction,[4]; 0.0003162 µM,0.0016
same,increase in dead-cell fraction,[4]; 0.001 µM,-0.0037
same,increase in dead-cell fraction,[4]; 0.003162 µM,0.0018
same,increase in dead-cell fraction,[4]; 0.01 µM,-0.0004
same,increase in dead-cell fraction,[4]; 0.03162 µM,0.0059
same,increase in dead-cell fraction,[4]; 0.1 µM,0.0074
same,increase in dead-cell fraction,[4]; 0.3162 µM,0.0128
same,increase in dead-cell fraction,[4]; 1 µM,0.0178
same,increase in dead-cell fraction,[4]; 3.162 µM,0.0141
same,"GR50, 72 h",AZD1775,1.56 µM
same,"GR50, 72 h",THZ1 [5],0.0347 µM
same,"GR50, 72 h",Rucaparib,> 10 µM
same,"GR50, 72 h",[6],0.278 µM
same,"GR50, 72 h",Saracatinib/AZD0530,4.22 µM
same,"GR50, 72 h",THZ531 [7],0.0474 µM
same,"GR50, 72 h",[8],1.87 µM
same,"GR50, 72 h",[9],< 0.001 µM
same,"GR50, 72 h",BVD523,> 10 µM
same,"GR50, 72 h",[10],0.0239 µM
same,"GR50, 72 h",Alpelisib/BYL719,> 10 µM
same,"GR50, 72 h",Cediranib/AZD2171,1.46 µM
